We go through 35 compounds from patent US20230114241A1, “METHODS OF TREATING EPILEPSY USING THE SAME” (Trevena, Inc., priority 2019, published 2023).

The target of the first assay is human sphingosine-1-phosphate receptor 1 (S1P1) (Homo sapiens, UniProt P21453). The assay is described as follows: Inhibition of cAMP production (HTRF cAMP HiRange), S1P1 CHO-K1 cells. It counts as cell-based. To be noted: inhibition of cAMP production, S1P1; read-out: hS1P1 CAMP pEC50 (converted). On the procedure: Stable clonal Chinese hamster ovary K1 (CHO-K1) cells co-expressing EA-β-arrestin2 and the human sphingosine-1-phosphate receptor 1 (NM_001400, S1P1) with a C-terminal Prolink™ tag were purchased from DiscoverX corporation (Cat #: 93-0207C2).
Sequence of human sphingosine-1-phosphate receptor 1 (S1P1) (P21453 whole entry): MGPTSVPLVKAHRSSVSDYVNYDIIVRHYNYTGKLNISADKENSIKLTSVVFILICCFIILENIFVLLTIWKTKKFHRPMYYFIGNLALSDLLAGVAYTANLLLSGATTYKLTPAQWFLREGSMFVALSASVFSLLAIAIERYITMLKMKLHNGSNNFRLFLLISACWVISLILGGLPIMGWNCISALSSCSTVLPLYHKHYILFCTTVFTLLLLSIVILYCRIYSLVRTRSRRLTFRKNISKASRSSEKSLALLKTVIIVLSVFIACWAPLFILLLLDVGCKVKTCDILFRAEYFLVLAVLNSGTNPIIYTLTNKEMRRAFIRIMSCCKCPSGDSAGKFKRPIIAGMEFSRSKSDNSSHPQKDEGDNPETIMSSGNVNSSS
Cell lines were cultured in AssayComplete™ Media 6 (DiscoverX Corporation, Cat #: 920018GF2) at 37° C. and 5% CO2 in a humidified CO2 and temperature-controlled incubator. To begin assay plating, cells were washed with Dulbecco's phosphate buffered saline (CellGro, Cat #: 21-031-CV) and lifted from the culturing flask by incubation (37° C., 5 min) with CellStripper (Cellgro, Cat #: 25-056-CI). […] Plated cells were incubated overnight at 37° C. and 5% CO2 in a humidified CO2 and temperature-controlled incubator.
Agonist-promoted G-protein responses were determined by measuring changes in intracellular cAMP using the HTRF® cAMP HiRange kit (CisBio, Cat #: 62AM6PEJ) based on time-resolved fluorescence resonance energy transfer (TR-FRET) technology. […] Following a 30-minute incubation at 37° C. and 5% CO2 in a humidified CO2 and temperature-controlled incubator, the components of the cAMP HiRange kit were added as per the manufacturer's instructions. After an hour incubation at room temperature, plates were analyzed by a BMG PheraStar microplate reader.
These values are normalized to fingolimod, a known agonist of the sphingosine-1-phosphate 1 receptor.
For orientation: Changes in cAMP serve as a functional read-out for many G protein-coupled receptors.
Regarding `COc1ccc2nc(-c3ccc4c(c3)nnn4C(C)C)oc2c1` [Compound 426, 2-(1-isopropyl-1H-benzo[d][1,2,3]triazol-5-yl)-6-methoxy-benzo[d]oxazole], the EC50 was < 316 nM. Same read-out and setting: as for `CC(C)n1nnc2cc(-c3nc4c(Cl)cccc4o3)ccc21` [Compound 427, 4-chloro-2-(1-isopropyl-1H-benzo[d][1,2,3]triazol-5-yl)benzo[d]oxazole], the figure is > 316 nM. Turning to `COc1cccc2oc(-c3ccc4c(c3)nnn4CC(C)C)nc12` [Compound 450, 2-(1-isobutyl-1H-benzo[d][1,2,3]triazol-5-yl)-4-methoxy-benzo[d]oxazole], the EC50 was < 316 nM. As for `CC(C)n1nnc2cc(-c3noc(-c4ccccc4N)n3)ccc21` [Compound 576, 2-{3-[1-(propan-2-yl)-1H-1,2,3-benzotriazol-5-yl]-1,2,4-oxadiazol-5-yl}aniline], the EC50 is < 316 nM. For the compound `CC(C)n1nnc2cc(-c3nc4c(o3)CCc3sccc3-4)ccc21` [Compound 456, 4-[1-(propan-2-yl)-1H-1,2,3-benzotriazol-5-yl]-5-oxa-10-thia-3-azatricyclo[7.3.0.0^2,6] dodeca-1(9),2(6),3,11-tetraene], the EC50 is < 316 nM.

For the compound `COc1ccccc1-c1nc(-c2ccc3c(c2)nnn3C(C)C)co1` [Compound 575, 5-[2-(2-methoxy-phenyl)-1,3-oxazol-4-yl]-1-(propan-2-yl)-1H-1,2,3-benzotriazole], the EC50 was < 316 nM.

In the case of `COc1ccccc1-c1nc(-c2ccc3c(c2)nnn3C(C)(C)CO)no1` [Compound 623, 2-(5-(5-(2-methoxy-phenyl)-1,2,4-oxadiazol-3-yl)-1H-benzo[d][1,2,3]triazol-1-yl)-2-methyl-propan-1-ol], the EC50 is > 316 nM. The same measure, in the same setting: as for `CC(C)n1nnc2cc(-c3nc4c(o3)CCCc3ccccc3-4)ccc21` [Compound 434, 4-[1-(propan-2-yl)-1H-1,2,3-benzotriazol-5-yl]-5-oxa-3-azatricyclo[8.4.0.0^2,6] tetradeca-1(14),2(6),3,10,12-pentaene], the figure is > 316 nM; as for `Cc1ccc2oc(-c3ccc4c(c3)nnn4CC(C)C)nc2c1` [Compound 437, 2-(1-isobutyl-1H-benzo[d][1,2,3]triazol-5-yl)-5-methyl-benzo[d]oxazole], < 316 nM. Regarding `Cc1nccnc1-c1nc(-c2ccc3c(c2)nnn3C(C)(C)CO)no1` [Compound 641, 2-methyl-2-(5-(5-(3-methyl-pyrazin-2-yl)-1,2,4-oxadiazol-3-yl)-1H-benzo[d][1,2,3]triazol-1-yl)propan-1-ol], the EC50 was > 316 nM.

Take `CC(C)n1ccc2cc(-c3nc(-c4ccccc4F)cs3)ccc21` [Compound 403, 4-(2-fluorophenyl)-2-(1-isopropylindol-5-yl)thiazole]: the EC50 is > 316 nM. For `Cc1cn(C)nc1-c1noc(-c2ccc3c(c2)nnn3C(C)C)n1` [Compound 519, 5-[3-(1,4-dimethyl-1H-pyrazol-3-yl)-1,2,4-oxadiazol-5-yl]-1-(propan-2-yl)-1H-1,2,3-benzotriazole], the EC50 was < 316 nM.

In the case of `Cc1occc1-c1noc(-c2ccc3c(c2)nnn3CC(C)(C)O)n1` [Compound 492, 2-methyl-1-{5-[3-(2-methylfuran-3-yl)-1,2,4-oxadiazol-5-yl]-1H-1,2,3-benzotriazol-1-yl}propan-2-ol], the EC50 is > 316 nM.

The assay is the same for the next values; noted with them: inhibition of cAMP production; potency; read-out: hS1P1 CAMP pEC50 (converted).
For the compound `COc1ccc(-c2nc(-c3ccc4c(c3)nnn4C3CCCC3)no2)cc1OC` [Compound 275, 3-(1-cyclopentyl-1H-benzo[d][1,2,3]triazol-5-yl)-5-(3,4-dimethoxyphenyl)-1,2,4-oxadiazole], the EC50 was > 316 nM. Still for that read-out and setting: the value for `FC(F)(F)c1cc(-c2noc(-c3ccc4c(c3)nnn4C3CCCC3)n2)ccc1OCc1cccnc1` [Compound 4, 1-cyclopentyl-5-{3-[4-(pyridin-3-ylmethoxy)-3-(trifluoromethyl)phenyl]-1,2,4-oxadiazol-5-yl}-1H-1,2,3-benzotriazole] was > 316 nM. Same read-out and setting: the value for `CC(C)n1nnc2cc(-c3nc(Cc4ccccc4)no3)ccc21` [Compound 88, 5-(3-benzyl-1,2,4-oxadiazol-5-yl)-1-(propan-2-yl)-1H-1,2,3-benzotriazole] was > 316 nM; that for `CC(C)n1nnc2cc(-c3nc(-c4ccc(Cl)s4)no3)ccc21` [Compound 170, 5-[3-(5-chlorothiophen-2-yl)-1,2,4-oxadiazol-5-yl]-1-(propan-2-yl)-1H-1,2,3-benzotriazole] was > 316 nM.

Take `CCC1(CC)CC(=O)c2cc(-c3nsc(-c4ccc5c(c4)nnn5C(C)C)n3)ccc2O1` [Compound 143, 2,2-diethyl-6-(5-(1-isopropyl-1H-benzo[d][1,2,3]triazol-5-yl)-1,2,4-thiadiazol-3-yl)chroman-4-one]: the EC50 is > 316 nM. Same read-out and setting: the value for `COc1cccc(F)c1-c1noc(-c2ccc3c(c2)nnn3C(C)C)n1` [Compound 260, 3-(2-fluoro-6-methoxy-phenyl)-5-(1-isopropylbenzo-triazol-5-yl)-1,2,4-oxadiazole] was > 316 nM.

Regarding `N#Cc1cc(-c2nnc(-c3ccc4[nH]cnc4c3)o2)ccc1NCC(F)F` [Compound 359, 5-[5-(1H-1,3-benzo-diazol-5-yl)-1,3,4-oxadiazol-2-yl]-2-[(2,2-difluoroethyl)amino] benzonitrile], the EC50 is < 316 nM.

Regarding `c1cc(-c2noc(-c3ccc4c(c3)nnn4C3CC3)n2)ccn1` [Compound 295, 1-cyclopropyl-5-[3-(pyridin-4-yl)-1,2,4-oxadiazol-5-yl]-1H-1,2,3-benzotriazole], the EC50 was > 316 nM.

`COc1ccccc1-c1noc(-c2ccc3c(c2)nnn3C(C)(C)C)n1` [Compound 207, 1-tert-butyl-5-[3-(2-methoxyphenyl)-1,2,4-oxadiazol-5-yl]-1H-1,2,3-benzotriazole]: the EC50 is < 316 nM. Still for that read-out and setting: the value for `CCC1(CC)CC(=O)c2cc(-c3nc(-c4ccc(O)nc4)no3)ccc2O1` [Compound 105, 2,2-diethyl-6-[3-(6-hydroxy-3-pyridyl)-1,2,4-oxadiazol-5-yl]chroman-4-one] was > 316 nM; that for `N#Cc1cc(-c2nc(-c3ccc4c(c3)CC(=O)N4)no2)ccc1NCC1CC1` [Compound 210, 2-((cyclopropyl-methyl)amino)-5-(3-(2-oxoindolin-5-yl)-1,2,4-oxadiazol-5-yl)benzonitrile] was < 316 nM; that for `N#Cc1cc(-c2nc(-c3ccc4c(c3)CCC(=O)N4)no2)ccc1NCC(F)F` [Compound 344, 2-[(2,2-difluoroethyl)amino]-5-[3-(2-oxo-1,2,3,4-tetrahydroquinolin-6-yl)-1,2,4-oxadiazol-5-yl]benzonitrile] was < 316 nM. In the case of `CCC1(CC)CC(=O)c2cc(-c3nc(-c4ccccc4O)no3)ccc2O1` [Compound 187, 2,2-diethyl-6-[3-(2-hydroxyphenyl)-1,2,4-oxadiazol-5-yl]chroman-4-one], the EC50 is > 316 nM.

As for `COc1ccc(-c2noc(-c3ccc4c(c3)nnn4C3CCCC3)n2)c2ccccc12` [Compound 91, 1-cyclopentyl-5-[3-(4-methoxynaphthalen-1-yl)-1,2,4-oxadiazol-5-yl]-1H-1,2,3-benzotriazole], the EC50 is > 316 nM.

For `CC(C)n1ncc2cc(-c3nc(-c4cccc5c4OCO5)no3)ccc21` [Compound 336, 3-(benzo[d][1,3]dioxol-4-yl)-5-(1-isopropyl-1H-indazol-5-yl)-1,2,4-oxadiazole], the EC50 is < 316 nM. For `COc1cccnc1-c1noc(-c2ccc3c(c2)nnn3C2CCCC2)n1` [Compound 203, 1-cyclopentyl-5-[3-(3-methoxy-pyridin-2-yl)-1,2,4-oxadiazol-5-yl]-1H-1,2,3-benzotriazole], the EC50 was > 316 nM. On to `COc1cccc(-c2nc(-c3ccc4c(c3)nnn4C(C)C)no2)c1` [Compound 299, 3-(1-isopropylbenzo-triazol-5-yl)-5-(3-methoxyphenyl)-1,2,4-oxadiazole], for which the EC50 is > 316 nM. In the case of `COc1ccccc1-c1noc(-c2ccc3c(c2)nnn3C(C)C)n1` [Compound 286, 5-(1-isopropyl-1H-benzo[d][1,2,3]triazol-5-yl)-3-(2-methoxy-phenyl)-1,2,4-oxadiazole], the EC50 is < 316 nM. Still for that read-out and setting: as for `O=C(O)CCn1nnc2cc(-c3noc(-c4ccccc4Br)n3)ccc21` [Compound 134, 3-(5-(5-(2-bromophenyl)-1,2,4-oxadiazol-3-yl)-1H-benzo[d][1,2,3]triazol-1-yl)propanoic acid], the figure is > 316 nM; as for `FC(F)(F)c1cc(-c2noc(-c3ccc4c(c3)nnn4C3CC3)n2)ccc1OCc1ccccc1` [Compound 85, 5-{3-[4-(benzyloxy)-3-(trifluoromethyl)phenyl]-1,2,4-oxadiazol-5-yl}-1-cyclopropyl-1H-1,2,3-benzotriazole], > 316 nM; as for `Cc1oc(-c2ccc3c(c2)nnn3C(C)C)nc1-c1ccccc1` [Compound 247, 5-(5-methyl-4-phenyl-1,3-oxazol-2-yl)-1-(propan-2-yl)-1H-1,2,3-benzotriazole], > 316 nM. For the compound `Cc1ccccc1Cc1noc(-c2ccc3c(c2)nnn3C(C)C)n1` [Compound 202, 5-{3-[(2-methyl-phenyl)methyl]-1,2,4-oxadiazol-5-yl}-1-(propan-2-yl)-1H-1,2,3-benzotriazole], the EC50 was > 316 nM.
